# Measured values: US20250332143A1, “COMPOSITION COMPRISING ALOX5 INHIBITOR FOR PREVENTING OR TREATING SARCOPENIA” (PLUTO Inc., priority 2022, published 2025)
# Entries after “also recorded” stand apart in the source; their conditions may differ.
# Assays:
# [1] = test system: Dex-treated C2C12 myotubes; assay: Dex-induced myotube atrophy, myosin heavy chain immunostaining, myotube diameter; type: cell-based, mouse; settings: 10 μM Dex 24 h
# Method: (§1) C2C12 murine skeletal muscle myoblasts were obtained from Koram Biotech (Republic of Korea). The cells were maintained in DMEM growth medium supplemented with 10% FBS, 1% penicillin, and streptomycin. When myoblasts proliferated to approximately 90%, they were differentiated into muscle fibers by treating them with DMEM differentiation medium supplemented with 2% HS, 1% penicillin, and streptomycin for 96 hours. Differentiated muscle fibers were treated with 10 μM Dex for 24 hours to induce sarcopenia. To evaluate the degree of differentiation of muscle cells, differentiating myoblasts were treated with the corresponding compound in differentiation medium for 24 or 48 hours.
# Muscle fibers were stained using immunochemical staining using myosin heavy chain antibody. Specifically, the muscle fibers were rinsed three times with PBS and then fixed with a 3.7% formaldehyde solution. After rinsing with PBS, a transparency process was performed with 0.2% TritonX-100 solution, and additional rinsing was performed with PBS. They were blocked with 1% bovine serum albumin solution (1% BSA in PBS-T) and incubated with primary antibody overnight at 4° C. After washing with PBS, the secondary antibody was treated for 1 hour. Afterwards, the myotubes were counterstained with 1 μM DAPI in PBS. Fluorescence images of stained myotubes in five different areas were obtained using a DMI 3000 B microscope (Leica, Germany) and analyzed using ImageJ 1.52 software (National Institutes of Health, Bethesda, MD, USA). Myotubes were classified as myosin heavy chain positive cells containing four or more nuclei, and the diameter of muscle fibers containing four or more nuclei was measured.
# Atrogin-1 and MuRF-1 = assay: qPCR of muscle atrophy regulators in Dex-treated C2C12 myotubes; type: cell-based, mouse
# Method: as §1
# For quantitative real-time PCR, transcript levels of genes of interest were analyzed using the StepOnePlus real-time PCR system (Applied Biosystems, UK). Total RNA was reverse transcribed to prepare cDNA using AccuPower® RT PreMix (Bioneer Corporation). The obtained cDNA was subjected to real-time PCR according to the manufacturer's instructions with the following changes. PCR was performed in triplicate in a total volume of 20 μL 2× Power SYBR Green PCR Master Mix (Enzynomics, Republic of Korea) containing 200 nM (final concentration) of each specific primer and 1 μL of cDNA synthesized from 1 μg of total RNA. PCR amplification consisted of incubating the mixture at 95° C. for 10 minutes, followed by 40 cycles of denaturation, annealing, and extension. Denaturation was performed at 95° C. for 15 s, annealing was performed at 60° C. for 1 min, and extension was performed at 72° C. for 20 s with fluorescence detection at 72° C. after each cycle. After the final cycle, melting point analysis of all samples was performed within the range of 60 to 95° C. using continuous fluorescence detection. Specific cDNA samples were included in each run and used as reference material for comparison between runs. The expression level of GAPDH was used to calculate and normalize the expression levels of all other genes. Results were expressed as relative expression levels for each gene. The synthesized cDNA was amplified by quantitative real-time PCR (qRT-PCR) or standard PCR.
# LTB4 = LTB4 ELISA in C2C12 muscle fibers; type: cell-based, mouse; settings: Dex-treated myotubes
# Method: as §1, with “48 hours. An LTB4 ELISA kit was purchased from MyBioSource (CA, USA). The concentrations of LTB4 in skeletal muscles and cell lysates were measured by the enzyme-linked […] method according to the manufacturer's instructions. Samples (100 μL) were maintained at room temperature (RT) for 1 hour in 96 wells with polyclonal LTB4 antibody. Afterwards, an enzymatic reaction was performed to stop the process, and the absorbance was measured at 405 nm.” for “48 hours.”
# Alox5 = target: T1, Alox5 (Homo sapiens, UniProt P09917); settings: cited from earlier work
# T1 sequence (P09917 1-674): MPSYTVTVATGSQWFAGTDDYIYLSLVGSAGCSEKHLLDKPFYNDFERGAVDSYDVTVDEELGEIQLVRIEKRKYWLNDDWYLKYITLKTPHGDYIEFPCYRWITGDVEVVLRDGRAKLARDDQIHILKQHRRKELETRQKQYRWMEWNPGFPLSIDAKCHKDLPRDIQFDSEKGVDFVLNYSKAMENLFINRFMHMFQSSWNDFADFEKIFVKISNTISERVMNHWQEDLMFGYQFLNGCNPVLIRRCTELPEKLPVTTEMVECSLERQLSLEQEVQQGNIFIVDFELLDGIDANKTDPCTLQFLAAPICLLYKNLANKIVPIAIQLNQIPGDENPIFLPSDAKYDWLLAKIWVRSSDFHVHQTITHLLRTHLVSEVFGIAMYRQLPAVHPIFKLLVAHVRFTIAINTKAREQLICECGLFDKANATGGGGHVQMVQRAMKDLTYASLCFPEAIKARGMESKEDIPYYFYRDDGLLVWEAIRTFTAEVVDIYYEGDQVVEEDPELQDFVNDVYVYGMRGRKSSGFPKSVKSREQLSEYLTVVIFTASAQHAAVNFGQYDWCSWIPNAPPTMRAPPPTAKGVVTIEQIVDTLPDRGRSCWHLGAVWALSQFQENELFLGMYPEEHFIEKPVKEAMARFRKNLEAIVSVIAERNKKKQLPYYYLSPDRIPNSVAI
smiles,measurement,setting,value
"CC(C)OC(=O)C(C(=O)OC(C)C)=C1SC=CS1 [malotilate, Malotilate]",diameter of muscle fibers (C2C12 myotubes),"[1]; zileuton 10 µM, wedelolactone 20 μM (FIGS. 2, 3)",recovered
same,myotube atrophy in Dex-treated myotubes,[1]; C2C12 myotubes,inhibited the effect of Dex on myotube atrophy
same,"Atrogin-1 expression (mRNA, qPCR)",Atrogin-1 and MuRF-1,inhibited the upregulation; also recorded: decreased
same,"MuRF-1 expression (mRNA, qPCR)",Atrogin-1 and MuRF-1,inhibited the upregulation; also recorded: decreased
same,LTB4 levels,LTB4,lowered
same,Alox5 inhibition selectivity,Alox5,selective inhibitor of Alox5
